One molecule from patent US20160129011A1, “BICYCLO 2,3-BENZODIAZEPINES AND SPIROCYCLICALLY SUBSTITUTED 2,3-BENZODIAZEPINES” (BAYER PHARMA AKTIENGESELLSCHAFT, priority 2013, published 2016) can be followed below.

In assay [1] the target is T1, BRD4 (BD1) (Homo sapiens, UniProt O60885).
T1 construct: longer constructs also being possible, preferably amino acids 44-168; made in house; host or cells: E. coli
In words: Binding assay BRD4/acetylated peptide H4 (TR-FRET protein-protein interaction assay). Conditions: BRD4 (BD1) / acetylated histone H4 peptide. In outline:
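His6-tagged BRD4 BD1 (aa 67-152, E. coli-expressed, typically 10 nM) was used with a biotinylated tetra-acetylated H4 peptide, and compounds at 0.1 nM–20 μM in duplicate. After 10 min preincubation, mixtures were incubated 1 h at 22 °C, then ≥3 h at 4 °C. Read-out was the TR-FRET 665/622 nm ratio (Eu-streptavidin to anti-His-XL665); IC50 from a 4-parameter fit.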
For orientation: TR-FRET usually uses a lanthanide donor and a delayed reading to cut background.

Assay [2] deals with MOLM-13 cells. In words: Cell proliferation assay (alamarBlue), MOLM-13. Format: cell-based. Conditions: Homo sapiens, MOLM-13; acute myeloid leukaemia cell line, 96 h incubation. Summed up: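 MOLM-13 cells in RPMI1640/10% FCS were plated overnight, then exposed to seven compound dilutions (1E-5 to 1E-8 M) for 96 h at 37 °C. Viability was read by alamarBlue fluorescence (ex 530/em 590 nm). Pre-treatment readings were subtracted, and IC50 was calculated against buffer-treated cells.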
In general terms: Alamar Blue is a resazurin reagent that responds to reducing activity.

Assay [3] has as its system MV4-11 cells. In words: Cell proliferation assay (alamarBlue), MV4-11. Conditions: Homo sapiens, acute myeloid leukaemia cell line, 72 h incubation. Format: cell-based. On the procedure: (§1) In accordance with the invention, the ability of the substances to inhibit cell proliferation was determined. Cell viability was determined by means of the alamarBlue® reagent (Invitrogen) in a Victor X3 Multilabel Reader (Perkin Elmer). The excitation wavelength was 530 nm and the emission wavelength […].
The MV4-11 cells (ATCC, CRL 9591) were sown at a concentration of 5000 cells/well in 100 μl of growth medium (RPMI1640, 10% FCS) on 96-well microtitre plates.
(§2) The MDA-MB-231 cells (DSMZ, ACC 732) were sown at a concentration of 4000 cells/well in 100 μl of growth medium (DMEM/Ham's F12 medium, 10% FCS) on 96-well microtitre plates. After overnight incubation at 37° C., the fluorescence values (CI values) were determined. Then the plates were treated with various substance dilutions (1E-5 M, 3E-6 M, 1E-6 M, 3E-7 M, 1E-7 M, 3E-8 M, 1E-8 M) and incubated at 37° C. for 72 (MV4-11, LOX-IMVI cells), 96 (MOLM-13, B16F10, […] cells), 120 (MOLP-8, KMS-12-PE cells) or 168 (LAPC-4 cells) hours. Subsequently, the fluorescence values were determined (CO values). For the data analysis, the CI values were subtracted from the CO values and the results were compared between cells which had been treated with various dilutions of the substance or only with buffer solution. This was used to calculate the IC50 values (substance concentration required for 50% inhibition of cell proliferation). […]

The test system of assay [4] is B16F10 cells. In words: Cell proliferation assay (alamarBlue), B16F10. Format: cell-based. The settings on record: Mus musculus, B16-F10; melanoma (BRAF wild-type) cell line, 96 h incubation. On the procedure:
as §1
The B16F10 cells (ATCC, CRL-6475) were sown at a concentration of 300-500 cells/well in 100 μl of growth medium (DMEM with phenol red, 10% FCS) on 96-well microtitre plates.
(§3) The MDA-MB-231 cells (DSMZ, ACC 732) were sown at a concentration of 4000 cells/well in 100 μl of growth medium (DMEM/Ham's F12 medium, 10% FCS) on 96-well microtitre plates. After overnight incubation at 37° C., the fluorescence values (CI values) were determined. Then the plates were treated with various substance dilutions (1E-5 M, 3E-6 M, 1E-6 M, 3E-7 M, 1E-7 M, 3E-8 M, 1E-8 M) and incubated at 37° C. for 72 (MV4-11, LOX-IMVI cells), 96 (MOLM-13, B16F10, […] cells), 120 (MOLP-8, KMS-12-PE cells) or 168 (LAPC-4 cells) hours. Subsequently, the fluorescence values were determined (CO values). For the data analysis, the CI values were subtracted from the CO values and the results were compared between cells which had been treated with various dilutions of the substance or only with buffer solution. This was used to calculate the IC50 values (substance concentration required for 50% inhibition of cell proliferation).
(§4) The substances were examined in the cell lines of Table 1 which, in an exemplary manner, represent the stated indications: […]

Assay [5] concerns LOX-IMVI cells. In words: Cell proliferation assay (alamarBlue), LOX IMVI. Format: cell-based. The settings on record: Homo sapiens, melanoma (BRAF mutated) cell line, 72 h incubation. On the procedure: as §1
The LOX-IMVI cells (NCI-60) were sown at a concentration of 1000 cells/well in 100 μl of growth medium (RPMI1640, 10% FCS) on 96-well microtitre plates.
as §2

For assay [6], the system named is MOLP-8 cells. The experiment in a line: Cell proliferation assay (alamarBlue), MOLP-8. The settings on record: Homo sapiens, MOLP-8; multiple myeloma cell line, 120 h incubation. Format: cell-based. On the procedure:
as §1
The MOLP-8 cells (DSMZ, ACC 569) were sown at a concentration of 4000 cells/well in 100 μl of growth medium (RPMI1640, 20% FCS) on 96-well microtitre plates.
as §3, §4

The subject of assay [7] is KMS-12-PE cells. The experiment in a line: Cell proliferation assay (alamarBlue), KMS-12-PE. Format: cell-based. Conditions: Homo sapiens, multiple myeloma cell line, 120 h incubation. On the procedure: as §1
The KMS-12-PE cells (DSMZ, ACC 606) were sown at a concentration of 4000 cells/well in 100 μl of growth medium (RPMI1640, 20% FCS) on 96-well microtitre plates.
as §2

In assay [8] the test system is LAPC-4 cells. The experiment in a line: Cell proliferation assay (alamarBlue), LAPC-4. Conditions: Homo sapiens, LAPC4; prostate cancer cell line, 1 nM methyltrienolone, 168 h incubation. Format: cell-based. On the procedure:
as §1
The LAPC-4 cells (ATCC, PTA-1441TM) were sown at a concentration of 4000 cells/well in 100 μl of growth medium (RPMI1640, 2 mM L-glutamine, 10% cFCS) on 96-well microtitre plates. One day later, the LAPC-4 cells were treated with 1 nM methyltrienolone and various substance dilutions.
The MDA-MB-231 cells (DSMZ, ACC 732) were sown at a concentration of 4000 cells/well in 100 μl of growth medium (DMEM/Ham's F12 medium, 10% FCS) on 96-well microtitre plates. After overnight incubation at 37° C., the fluorescence values (CI values) were determined. Then the plates were treated with various substance dilutions (1E-5 M, 3E-6 M, 1E-6 M, 3E-7 M, 1E-7 M, 3E-8 M, 1E-8 M) and incubated at 37° C. for 72 (MV4-11, LOX-IMVI cells), 96 (MOLM-13, B16F10, […] cells), 120 (MOLP-8, KMS-12-PE cells) or 168 (LAPC-4 cells) hours. Subsequently, the fluorescence values were determined (CO values). […]

Assay [9] concerns MDA-MB-231 cells. The experiment in a line: Cell proliferation assay (alamarBlue), MDA-MB-231. Format: cell-based. Conditions: Homo sapiens, mammary carcinoma cell line, 96 h incubation. On the procedure:
as §1, §3, §4

Turning to `CNC(=O)N1N=C(c2ccc(N3C[C@H]4CC[C@@H](C3)O4)cc2)c2cc(OC)c(OC)cc2C[C@@H]1C` [Example 4.2, (4S)-7,8-dimethoxy-N,4-dimethyl-1-[4-(8-oxa-3-azabicyclo[3.2.1]oct-3-yl)phenyl]-4,5-dihydro-3H-2,3-benzodiazepine-3-carboxamide], the half-maximal inhibitory concentration (IC50) (in general, the point on the concentration scale where inhibition reaches its midpoint) in [1] is 10 nM; in assay [2], 40 nM; in assay [3] it was 30 nM; in assay [4], 20 nM; in assay [5], 170 nM; in assay [6], 20 nM. The half-inhibitory concentration (IC50) was found to be 30 nM in assay [7], 10 nM in assay [8] and 40 nM in [9].
